Consider 1 compound from US20080107603A1, “Neuroprotectant methods, compositions, and screening methods thereof” (priority 2002, published 2008).

Where two headings read alike, the source gives them in different places.

For data set [1], the system named is retinal neurons in the retinal ganglion cell layer. Put plainly: NMDA retinal model (intravitreal NMDA, cell counts in retinal wholemounts). In kind it is in vivo, Sprague-Dawley rats. On the procedure: Young adult female Sprague-Dawley rats were used in the present experiments. The animals were supplied by Harlan, England and maintained in the Comparative Biology Unit at Charing Cross Hospital Campus, Imperial College. Animal procedures used were in accordance to regulations of Home Office, UK. The animals were divided into four groups. The first group consists of 6 normal rats that received no treatment. A further 9 animals were anesthetized with. Hypnorm™ (0.02 mg of fentanyl citrate and 0.54 mg fluanisone/100 g body weight) and Hypnovel™ (0.27 mg midazolam/100 g body weight) before they received unilateral intravitreal injection of 5 μl of 4 mM NMDA to the vitreous body of the left eyes, with the uninjected right eyes served as controls. Six of the experimental animals injected with NMDA received an additional intraperitoneal injection of L-ergothioneine 0.2 ml of 70 mg/ml (n=3), or phosphate buffer saline (PBS) as vehicle control 24 h and 30 min before injection of NMDA.
Further intraperitoneal injection of L-ergothioneine, or PBS was performed at 1 h, 24 h, 48 h and 72 h time points, and 3 injections per week for another three weeks. Six weeks after injection of NMDA, all animals were anaesthetized deeply again and perfused with physiological saline followed by 4% paraformaldehyde in phosphate buffer (pH 7.4). The eyeballs were collected in the same fixative and post-fixed for another half an hour before the retinas were dissected out in PBS. For each retina, four radial cuts were made before the retinas were flatly mounted onto gelatin-coated slides, and air-dried slowly in a moist chamber for 2-3 days.
The retinal whole-mounts were then stained for cresyl violet and cover slipped. Analysis was performed under a Wild microscope equipped with a camera lucida drawing tube. The number of retinal neurons in the retinal ganglion cell layer was counted and cell sizes measured at a magnification of 300× and in an area of 150×150 μm in the central, intermediate and peripheral parts of the four retinal quadrants. The neurons counted were divided into two groups with somata smaller than 6 μm, or equal to or larger than 6 μm in diameter. The majority of larger neurons are retinal ganglion cells while smaller somata are primarily non-ganglion cells or displaced amacrine cells (Perry (1981) Neuroscience 6:931-944). The numbers of cells were: counted in a total of 12 fields of individual retinas an analyzed statistically. The data is expressed as mean±S.E.M. Differences between values were compared by one-way analysis of variance (ANOVA).

For data set [2], the system named is PC12 cells. Put plainly: Mitochondrial membrane potential (ΔΨm) by TMRE fluorescence. In kind it is cell-based, Rat. The settings on record: 25 μM Aβ25-35; pretreatment of EGT (0.5 mM, 1 mM). On the procedure: To measure the mitochondrial membrane potential (ΔΨm), the lipophilic cationic probe TMRE was used. After treatment with Aβ25-35 (25 μM) for 24 h in the presence or absence of EGT, cells (1×10^4 cells/1 ml in 4-well chamber) were rinsed with PBS, and TME (150 nM) was loaded. After 30 min incubation at 37° C., cells were examined under a confocal microscope (LEICA TCS SP).

The test system of data set [3] is PC12 cells. Put plainly: Cell death induced by the NO releasing compound SNP (MTT). In kind it is cell-based, Rat. Conditions: MTT reduction assay. How it is done: The MTT assay is a sensitive measurement of the normal metabolic status of cells, particularly that of mitochondria, which reflects early cellular redox changes. After incubation, cells were treated with the MTT solution (final concentration, 1 mg/ml) for 2 h. The dark blue formazan crystals formed in intact cells were dissolved in DMSO, and absorbance at 570 nm was measured with a microplate reader. Results were expressed as the percentage (%) of MTT reduction, assuming that the absorbance of control cells was 100%.
A general note: Tetrazolium assays rely on reduction of a dye to a coloured formazan, in cell work by metabolically active cells.

The subject of the next data set is p65. Put plainly: Immunocytochemistry, nuclear translocation of p65. In kind it is cell-based, Rat. Conditions: Aβ25-35 for 1 h.
Data set [4] has as its system tyrosine hydroxylase positive cells (TH+ cells) in the substantia nigra. Put plainly: 6-OHDA lesion rat model, TH+ cells in the substantia nigra. In kind it is in vivo, Sprague-Dawley rats. On the procedure:
(§1) Male Sprague-Dawley rats with starting weights 225±25 g, were housed in groups of 3 with free access to food and water, under controlled temperature (21° C.±1° C.) and a 12 hour light/dark cycle (light on 07.00 hrs). All scientific procedures were carried out with the approval of the Home Office, U.K. Rats were administered, by gavage, 70 mg/kg of ergothioneine or vehicle (sterile distilled water) daily for 4 days (n=6 per group). On the 4th day, 1 hr after L-ergothioneine or vehicle administration, rats were anaesthetized with small animal Immobilon® (0.04 ml/rat, i.m.), and 6-OHDA (5 μg dissolved in 4 μl of 0.1% ascorbic acid/saline solution) was injected onto median forebrain bundle (stereotactic co-ordinates: 2.2 mm anterior, +1.5 lateral from bregma and −7.9 ventral to dura with ear bars 5 mm below incisor bars (Datla et al. (2001) Neuroreport 12:3871, which reference is herein specifically incorporated by reference in its entirety). One week after 6-OHDA lesioning, rats were killed by cervical dislocation and the brains were dissected out immediately. A coronal section was made at the level of hypothalamus and fore brain, and hind brain parts were separated. Hind-brain was fixed for 7 days in 4% paraformaldehyde, then cryo-protected with 30% sucrose solution for 2-3 days and used for tyrosine hydroxylase (TH) immuno-staining as described by Datla et al. (2001) supra. Briefly, TH was immuno-stained by incubating the 20 μm fixed coronal free-floating sections with polyclonal rabbit anti-TH (1:3000, Chemicon, U.K.) followed by biotinylated anti-rabbit IgG and avidin/biotin complex (Vector Lab, U.K.). The TH immuno-complex was then visualized by diaminobenzidine (DAB) and H2O2. Images of TH positive cells (TH+ cells) were captured by a Xillix CCD digital camera and counted automatically (Image Proplus, Datacell, U.K.). The number of TH+ cells in the substantia nigra on the control side was compared with the lesioned side by averaging the cells in 5 different levels (Datla et al. (2001) supra). […]

The test system of data set [5] is striatal dopamine content. The experiment in a line: 6-OHDA lesion rat model, striatal dopamine content. In kind it is in vivo, Sprague-Dawley rats. Conditions: treatment before 6-OHDA lesioning. On the procedure: as §1, with “Hind-brain was fixed for 7 days in 4% paraformaldehyde, then cryo-protected with 30% sucrose solution for 2-3 days and used for tyrosine hydroxylase (TH) immuno-staining as described by Datla et al. (2001) supra. Briefly, TH was immuno-stained by incubating the 20 μm fixed coronal free-floating sections with polyclonal rabbit anti-TH (1:3000, Chemicon, U.K.) followed by biotinylated anti-rabbit IgG and avidin/biotin complex (Vector Lab, U.K.). The TH immuno-complex was then visualized by diaminobenzidine (DAB) and H2O2.” left out, “U.K.).” for “U.K.). The number of TH+ cells in the substantia nigra on the control side was compared with the lesioned side by averaging the cells in 5 different levels (Datla et al. (2001) supra).”

The conditions of data set [6]: Rabbit; cited from earlier work.
For data set [7] the following is noted: Guinea Pig; cited from earlier work.
The conditions of data set [8]: Ox; cited from earlier work.
For data set [9] the following is noted: Sheep; cited from earlier work.
The mark [10] stands for this setting: NMDA-injected retina, L-ergothioneine i.p. 0.2 ml of 70 mg/ml, 6 weeks after NMDA.
[11] abbreviates: uninjected control eyes of L-ergothioneine treated animals.

With `C[N+](C)(C)[C@@H](Cc1c[nH]c(=S)[nH]1)C(=O)[O-]` [L-ergothioneine, 2-mercaptohistidine trimethylbetaine], in [1] (NMDA retinal model, versus PBS), the neuroprotective effect entry is given as “significant neuroprotective effect”. For the same compound, the “loss of ganglion cells” value is recorded as 44% in [1] (setting [10]) and 7% in data set [1] (setting [11]). Further, the “loss of small or non-ganglion cells” value in data set [1] (setting [10]) is listed as 31%. The “loss of non-ganglion cells” value in data set [1] (setting [11]) came out at 4%. The “Aβ25-35-induced dissipation of ΔΨm” value in the data set on PC12 cells [2] is given as “significantly blocked”. Also, in the data set on PC12 cells [3], the “cell death mediated by the NO donor SNP” value was “failed to attenuate”. In addition, the “Aβ25-35-induced nuclear translocation of p65” value in the data set with p65 is “inhibitory effect”. Also, the “improvement in terms of neuroprotection over the controls” value in data set [4] (L-ergothioneine vs vehicle treated group) is “approximately 20%”. Also, the “number of TH+ cells on the control side of the brain” value in data set [4] (control (unlesioned) side, vs vehicle group) is “comparable”. Further, the “reduction in the number of TH+ cells” value in data set [4] (lesioned vs control side, 70 mg/kg by gavage, one week after 6-OHDA lesioning) is reported as 46%. For the same compound, the “loss of striatal dopamine content” value in data set [5] is “markedly reduced the loss”. In addition, the “L-Ergothioneine Concentration (mg/100 ml blood)” value in [6] is 1-10 mg/100 ml blood; in data set [7], 1-4 mg/100 ml blood; in [8], 0.5-2 mg/100 ml blood; in [9], 2-6 mg/100 ml blood.
